Test systems include UO-31 renal; SNB-75 CNS; M14 melanoma; OVCAR-5 ovarian; MOLT-4 leukemia; NCI-H522 lung; KM12 colon; HL-60(TB) leukemia; SF-539 CNS; UACC-257 melanoma.
What all share (experiment): inhibition of tumour cell growth, NCI panel, 48 h

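Five compound concentrations were applied to cells in 96-well plates for 48 hours; endpoints were derived by simple linear interpolation of the resulting dose-response curve. TGI: total growth inhibition.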 Where a SMILES comes first, the peptide text is derived from it. [ ]: non-standard residue; d: D form. Ava = NCCCCC(=O)O; Mpa = O=C(O)CCS

For the molecule `CC1=C[P+](c2ccccc2)(c2ccccc2)c2ccccc2O1`, the TGI in the test on UO-31 renal was above 100 µM; in the test with SNB-75 CNS, above 100 µM; with M14 melanoma, above 100 µM; in the test on OVCAR-5 ovarian, above 100 µM; in the test on MOLT-4 leukemia, 21 µM; in the test on NCI-H522 lung it was 17.3 µM. In addition, the TGI in the test with KM12 colon is 10.8 µM; with HL-60(TB) leukemia, 8.76 µM; in the test with SF-539 CNS, 31.3 µM; in the test with UACC-257 melanoma it was above 100 µM.

Turning to `CCO/N=C\c1ccc2oc(-c3ccccc3)cc(=O)c2c1`, the TGI was 5.83 µM in the test on UO-31 renal; 13.8 µM in the test with SNB-75 CNS; above 31.6 µM in the test with M14 melanoma; 40 µM in the test with OVCAR-5 ovarian; 19.9 µM with MOLT-4 leukemia; 0.265 µM with NCI-H522 lung. Moreover, the TGI was 11.1 µM in the test with KM12 colon, 12.2 µM in the test on HL-60(TB) leukemia, 2.86 µM in the test on SF-539 CNS and 66 µM with UACC-257 melanoma.

Turning to `CC(NC(=O)CCS)C(=O)NC(C)C(=O)NC(Cc1c[nH]c2ccccc12)C(=O)NC(Cc1c[nH]cn1)C(=O)NC(CO)C(=O)NC(Cc1c[nH]c2ccccc12)C(=O)NCCCCC(=O)NC(C)C(=O)NC(CCC(N)=O)C(=O)NC(CCCCN)C(=O)NC(C)C(=O)NC(CCCNC(=N)N)C(=O)NC(CCCCN)C(N)=O` (stereo unspecified) ([Mpa]AAWHSW[Ava]AQKARK-NH2; configuration not given here), the TGI in the test on UO-31 renal, in the test with SNB-75 CNS, in the test with M14 melanoma, with OVCAR-5 ovarian, with MOLT-4 leukemia and in the test with NCI-H522 lung was above 100 µM throughout. Besides, the TGI in the test with KM12 colon is 88.7 µM; in the test with HL-60(TB) leukemia, 65.4 µM; in the test on SF-539 CNS it was above 100 µM; with UACC-257 melanoma it was 63.1 µM.

Turning to `CCOC(=O)NC(Nc1ccc(F)cc1F)(C(F)(F)F)C(F)(F)F`, the TGI in the test with UO-31 renal, in the test with SNB-75 CNS, with M14 melanoma, in the test on OVCAR-5 ovarian, in the test on MOLT-4 leukemia and with NCI-H522 lung was above 100 µM each time. The TGI with KM12 colon, in the test on HL-60(TB) leukemia, in the test on SF-539 CNS and in the test on UACC-257 melanoma was above 100 µM throughout.

For the molecule `CC1[C@@]2(O[C@@H]3C=C4C5CCC6Cc7nc8c(nc7C[C@@]6(C)C5C[C@H](O)[C@@]4(C)[C@]13O)CC1CCc3c(cc4c5c3C(O)C[C@H]5[C@@H](C)C3(O4)OC(C)(C)CC3O)[C@]1(C)C8)O[C@@](C)(CO)C[C@@H]2O` (stereo partly specified), the TGI in the test with UO-31 renal was above 3.72 µM; with SNB-75 CNS, 0.372 µM; with OVCAR-5 ovarian, 1.48 µM; in the test on NCI-H522 lung, 2.39 µM; with KM12 colon, above 3.72 µM; with HL-60(TB) leukemia it was above 3.72 µM. Moreover, the TGI with SF-539 CNS and in the test on UACC-257 melanoma was above 3.72 µM each time.

On to `CN(C)CCNC(=O)c1cccc2c1C(=O)c1ccccc1C2=O`, for which the TGI was above 100 µM in the test on UO-31 renal; above 100 µM in the test on SNB-75 CNS; above 100 µM with OVCAR-5 ovarian; above 71.7 µM in the test on MOLT-4 leukemia; 69.1 µM in the test with NCI-H522 lung; above 100 µM with KM12 colon. For the same molecule, the TGI was 57.8 µM in the test on HL-60(TB) leukemia, above 100 µM with SF-539 CNS and 54.4 µM in the test with UACC-257 melanoma.

For the molecule `CCCCn1c(=O)[nH]c2c(N)ncnc21`, the TGI in the test on UO-31 renal, in the test on SNB-75 CNS, in the test on M14 melanoma, in the test with OVCAR-5 ovarian, in the test on NCI-H522 lung and in the test on HL-60(TB) leukemia was above 100 µM throughout. In addition, the TGI in the test with SF-539 CNS and in the test on UACC-257 melanoma was above 100 µM throughout.

With `Cc1cc2ncn(CC(=O)O)c2cc1C`, the TGI with UO-31 renal, in the test on SNB-75 CNS, in the test on M14 melanoma, with OVCAR-5 ovarian, with MOLT-4 leukemia and in the test with NCI-H522 lung was above 100 µM in each case. Also, the TGI in the test with KM12 colon, in the test on HL-60(TB) leukemia, in the test with SF-539 CNS and in the test with UACC-257 melanoma was above 100 µM each time.

For the molecule `CC(C#N)(NO)C(C)(C#N)NO` (stereo unspecified), the TGI in the test on UO-31 renal, in the test with SNB-75 CNS, with M14 melanoma, in the test on OVCAR-5 ovarian, with MOLT-4 leukemia and in the test with NCI-H522 lung was above 100 µM throughout. For the same molecule, the TGI in the test with KM12 colon, in the test on HL-60(TB) leukemia, with SF-539 CNS and in the test with UACC-257 melanoma was above 100 µM throughout.

Take `O=C(COc1cc(=O)oc2ccccc12)c1ccccc1`: the TGI in the test with SNB-75 CNS is above 100 µM; in the test on M14 melanoma it was above 100 µM; in the test on OVCAR-5 ovarian it was above 100 µM; with MOLT-4 leukemia, above 100 µM; with NCI-H522 lung, 89.9 µM; in the test on KM12 colon, above 100 µM. Besides, the TGI with HL-60(TB) leukemia is above 100 µM; in the test with SF-539 CNS, 58.7 µM; in the test with UACC-257 melanoma, above 100 µM.

In the case of `COc1ccc(SCc2cc(OC)ccc2OC)cc1`, the TGI in the test with UO-31 renal was above 100 µM; in the test on SNB-75 CNS, above 52.8 µM; in the test with M14 melanoma it was above 100 µM; with OVCAR-5 ovarian, above 100 µM; in the test with MOLT-4 leukemia, above 91.2 µM; with NCI-H522 lung, above 100 µM. The TGI in the test on KM12 colon, with HL-60(TB) leukemia, in the test with SF-539 CNS and in the test with UACC-257 melanoma was above 100 µM each time.

In the case of `O=C(Nc1ccccc1C(=O)NCc1ccccc1)/C(=C/c1ccccc1O)NC(=O)c1ccccc1`, the TGI in the test with UO-31 renal is above 100 µM; in the test with SNB-75 CNS it was 63.3 µM; in the test on M14 melanoma, above 100 µM; in the test on OVCAR-5 ovarian, above 100 µM; in the test with MOLT-4 leukemia, above 100 µM; in the test with NCI-H522 lung it was above 100 µM. The TGI in the test on KM12 colon, in the test on HL-60(TB) leukemia, with SF-539 CNS and in the test with UACC-257 melanoma was above 100 µM in each case.

As for `C/C(Cc1ccc2c(c1)OCO2)=N\N=c1\sc2ccccc2n1C`, the TGI in the test with UO-31 renal, with M14 melanoma, in the test on OVCAR-5 ovarian, in the test on MOLT-4 leukemia, in the test on NCI-H522 lung and in the test with KM12 colon was above 100 µM in each case. Besides, the TGI with HL-60(TB) leukemia, in the test on SF-539 CNS and in the test on UACC-257 melanoma was above 100 µM in each case.

As to `N=c1oc2cc(O)ccc2cc1C(=O)Nc1ccccn1`, the TGI in the test on SNB-75 CNS was above 100 µM; in the test on M14 melanoma, above 100 µM; in the test with OVCAR-5 ovarian, above 100 µM; in the test on MOLT-4 leukemia, above 100 µM; in the test on NCI-H522 lung, 13 µM; in the test on KM12 colon, above 100 µM. Besides, the TGI with HL-60(TB) leukemia, with SF-539 CNS and in the test on UACC-257 melanoma was above 100 µM throughout.

As to `O=C1C=C(NCCc2ccc(O)c([N+](=O)[O-])c2)C(=O)c2[nH]cnc21`, the TGI is above 100 µM in the test on UO-31 renal; 32.3 µM with M14 melanoma; above 100 µM with OVCAR-5 ovarian; 38.2 µM with MOLT-4 leukemia; 57.8 µM in the test on NCI-H522 lung; above 100 µM in the test with KM12 colon. Also, the TGI in the test with HL-60(TB) leukemia was 47.8 µM; in the test with SF-539 CNS, 90.5 µM; in the test on UACC-257 melanoma it was 38.7 µM.

Turning to `COc1ccc(-c2c(C#N)c(N)[nH]c(=S)c2C#N)cc1`, the TGI in the test on UO-31 renal was above 100 µM; in the test with M14 melanoma, above 100 µM; with OVCAR-5 ovarian, above 100 µM; in the test with MOLT-4 leukemia, above 100 µM; with NCI-H522 lung it was 63 µM; in the test with KM12 colon, above 100 µM. Besides, the figures for the TGI in the test on HL-60(TB) leukemia, with SF-539 CNS and in the test with UACC-257 melanoma were 69.2 µM, above 100 µM and above 100 µM, respectively.

For the molecule `COc1cc(/C=C/c2ccc(OC)c(OC)c2)oc(=O)c1`, the TGI with UO-31 renal is above 250 µM; with SNB-75 CNS it was above 227 µM; in the test on OVCAR-5 ovarian, above 250 µM; in the test on MOLT-4 leukemia, above 250 µM; with NCI-H522 lung it was above 250 µM; in the test on KM12 colon it was above 250 µM. Further, the TGI with HL-60(TB) leukemia was above 184 µM; with SF-539 CNS, above 250 µM; in the test with UACC-257 melanoma it was above 250 µM.

With `COc1ccc(C2CC(c3sc(Nc4ccc(C)cc4)nc3C)=NN2)cc1` (stereo unspecified), the TGI came to 29.4 µM in the test on UO-31 renal; 34.1 µM in the test with SNB-75 CNS; 39.2 µM with OVCAR-5 ovarian; 32.7 µM in the test on MOLT-4 leukemia; 31.8 µM in the test on NCI-H522 lung; 29.5 µM with KM12 colon. Also, the TGI in the test on HL-60(TB) leukemia stood at 24.6 µM; with SF-539 CNS it was 29 µM; in the test on UACC-257 melanoma, 32.6 µM.

As for `CN1C/C(=C\c2cccs2)C2=NN(c3ccccc3)C(c3cccs3)C2C1` (stereo unspecified), the TGI in the test with UO-31 renal was above 100 µM; in the test on M14 melanoma, above 68.3 µM; in the test with OVCAR-5 ovarian it was above 100 µM; with MOLT-4 leukemia, above 100 µM; in the test with NCI-H522 lung, above 100 µM; with KM12 colon, above 100 µM. In addition, the TGI in the test on HL-60(TB) leukemia is 4.45 µM; in the test on SF-539 CNS, above 100 µM; in the test on UACC-257 melanoma, above 100 µM.

With `O=[N+]([O-])c1ccc(C[P+]2(c3ccccc3)CCCCC2)cc1` (tested in a mixture with another compound), the TGI in the test with UO-31 renal, with SNB-75 CNS, in the test with M14 melanoma, in the test with OVCAR-5 ovarian, in the test on MOLT-4 leukemia and with KM12 colon was above 100 µM in each case. For the same molecule, the TGI with HL-60(TB) leukemia, with SF-539 CNS and in the test with UACC-257 melanoma was above 100 µM each time.
